± gives the expanded uncertainty stated by the source.
Assays:
[1] = Crystal; DTA
[2] = Molar enthalpy of transition or fusion; settings: Crystal; DSC

Normal melting temperature [1] | Molar enthalpy of transition or fusion [2] | Structure (SMILES)
27.80 ± 0.53 °C | 14.7 ± 0.645 kcal/mol | CCCCCCCCCCCCCCCCCC [octadecane]
62.00 ± 0.53 °C | 12.6 ± 0.55 kcal/mol | CCCCCCCCCCCCCCCC(=O)O [hexadecanoic acid]
54.00 ± 0.53 °C | 10.7 ± 0.478 kcal/mol | CCCCCCCCCCCCCC(=O)O [tetradecanoic acid]

— the NIST ThermoML archive (doi:10.1016/j.jct.2016.05.008)
